PMC4428071, “Structural basis for epitope masking and strain specificity of a conserved epitope in an intrinsically disordered malaria vaccine candidate” (Scientific Reports, 2015)

Target: mAb 6D8
Experiment: SPR binding of synthetic MSP2 peptides to immobilized (captured) mAb 6D8
Parameters: species or system mouse
Conditions: Biacore T200, mAb 6D8 captured with Mouse Antibody Capture kit, peptides in 20 mM HEPES, 150 mM NaCl, 3 mM EDTA, 0.05 % Tween20, pH 7.4, from concentration dependence of steady-state responses, ± standard deviation of three replicate experiments
Procedure: To explore the structural basis of epitope masking, it was necessary to first define the minimal epitope of mAb 6D8. […]
(§1) mM scale) using a three-fold equivalent of FMOC-protected amino acid, HCTU and DIPEA in DMF per cycle. Each amino acid coupling was carried out for 30 min at room temperature with continuous shaking. Chain deprotection was carried out in 50% piperidine in DMF for 2 min. Each step in the cycle was terminated with an extensive DMF wash. Peptides were N-terminally acetylated after the last coupling and deprotected, using a three-fold equivalent of acetic anhydride and Dipea in DMF.
The fully assembled peptides were dried under vacuum and cleaved for 3 h in a mixture of TFA:TIPS:water (95:2.5:2.5 v/v). The cleaved material was precipitated in cold diethyl ether overnight at -20 °C. T he insoluble peptide material was spun down at 4,000 rpm for 30 min at 4 °C and the pellet washed twice in cold diethyl ether prior to removal of the organic phase.
The crude peptide mixture was resuspended in 50% acetonitrile/0.1% TFA, filtered and freeze-dried prior to HPLC purification.
2 mg/mL for HPLC purification. […]
linear gradient of 5 to 40% of solvent B (90% acetonitrile / 9.9% water / 0.1% TFA) against solvent A (0.1% TFA in water) over 40 min. […]
mass spectrometry (LC-MS).
Affinity measurements. […]
Where low peptide solubility precluded ITC measurements, affinity was estimated by surface plasmon resonance (SPR) (Biacore T200, GE Healthcare) using a Mouse Antibody Capture kit (GE Healthcare). Synthetic peptides were resuspended in running buffer (20 mM HEPES, 150 mM NaCl, 3 mM EDTA, 0.05 % Tween20, pH 7.4) and injected over the 6D8-captured

Question: For Ac-AYNMSIRRS-NH2 [MSP2_15-23], which Kd is on record?
Answer: 34 ± 12 nM

Question: For Ac-AYNMSIRR-NH2 [MSP2_15-22], which Kd is on record?
Answer: 87 ± 21 nM

Question: Which Kd does the source give for Ac-FINNAYNMSIRRS-NH2 [MSP2_11-23] here?
Answer: 6 ± 3 nM

Question: Which Kd does the source give for Ac-NAYNMSIRR-NH2 [MSP2_14-22] here?
Answer: 6 ± 2 nM

Same assay, conditions: at up to 1 μM peptide concentration

Question: For “NAYNMSIR [MSP2_14-21, N-acetylated, C-amidated synthetic peptide, residues 14-21 of MSP2]”, which “Binding to immobilized mAb 6D8 (in words)” value (“Binding” for short) is on record?
Answer: abolishes binding

Question: Which “Binding” value does the source give for Ac-AYNMSIRR-NH2 [MSP2_15-22] here?
Answer: detectable binding

Question: Which “Binding” value does the source give for “YNMSIRRS [MSP2_16-23, N-acetylated, C-amidated synthetic peptide, residues 16-23 of MSP2]” here?
Answer: abolishes binding

Tested on: not listed separately
Experiment: Aggregation tendency of peptides on resuspension for HPLC purification
Format: physicochemical
Conditions: crude peptide resuspended for HPLC purification; had to be resuspended in 10 mM acetic acid at 1 mg/mL
Procedure: as §1
The fully assembled peptides were dried under vacuum and cleaved for 3 h in a mixture of TFA:TIPS:water (95:2.5:2.5 v/v). The cleaved material was precipitated in cold diethyl ether overnight at -20 °C. […]
MSP2 peptides were purified on a reverse-phase C18 column (Zorbax, 10 x 300 mm) using a linear gradient of 5 to 40% of solvent B (90% acetonitrile / 9.9% water / 0.1% TFA) against solvent A (0.1% TFA in water) over 40 min. The purity of MSP2 peptides was assessed by mass spectrometry (LC-MS).
Affinity measurements. Binding affinity constants of 6D8 antibodies (IgG and scFv) for synthetic peptides and recombinant allelic forms of MSP2 were determined by isothermal titration calorimetry (Microcal ITC-200, GE Healthcare) using either murine mAb 6D8 produced and affinity-purified by the Walter and Eliza Hall Institute antibody facility3 or 6D8 scFv. […]

Question: Which Tendency to aggregate does the source give for “NNAYNMSI [MSP2_13-20, N-acetylated, C-amidated synthetic peptide, residues 13-20 of MSP2]” here?
Answer: high tendency

Question: Which Tendency to aggregate does the source give for “INNAYNMS [MSP2_12-19, N-acetylated, C-amidated synthetic peptide, residues 12-19 of MSP2]” here?
Answer: high tendency
